{
  "source": "paper PMC7544826",
  "about": "(Communications Biology, 2020)",
  "key": {"[1]": {"molecular_target": "T1, Notum (Homo sapiens, UniProt Q6P988, C330S)", "T1 sequence (Q6P988 81-451 C330S)": "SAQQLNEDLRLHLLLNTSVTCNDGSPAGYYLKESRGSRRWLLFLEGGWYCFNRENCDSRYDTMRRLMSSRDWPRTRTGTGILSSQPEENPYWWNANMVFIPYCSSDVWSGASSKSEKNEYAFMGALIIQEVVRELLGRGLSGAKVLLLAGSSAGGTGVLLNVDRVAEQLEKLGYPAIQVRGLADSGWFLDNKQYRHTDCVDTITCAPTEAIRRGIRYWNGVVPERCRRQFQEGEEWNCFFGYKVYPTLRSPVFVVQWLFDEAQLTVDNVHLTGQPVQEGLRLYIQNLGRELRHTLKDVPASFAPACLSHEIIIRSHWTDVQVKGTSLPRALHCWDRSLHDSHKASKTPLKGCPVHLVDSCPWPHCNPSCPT", "experiment": "SPR equilibrium binding to biotinylated Notum on streptavidin chip", "design": "The human Notum enzyme core comprising amino acids S81–T451 with a C330S mutation; made in house; dialyzed conditioned medium used without purification", "settings": "result in words", "method": "The human Notum core sequence was cloned in a pHL-Avi3 vector[49] and co-transfected with the pDisplay_BirA-ER plasmid[50] into HEK293T cells with the media supplemented with 20 µM biotin. This procedure allows in vivo biotinylation to occur, and the dialyzed conditioned medium was directly used for SA sensor chip immobilization without protein purification. […] Approximately 2500 resonance units (RU) of the biotinylated Notum was coupled onto the chip. […] The response was plotted versus the concentration of the analytes and fitted by nonlinear regression to a one-site saturation binding model (GraphPad Prism 8)."}, "[2]": {"molecular_target": "T1, Notum", "experiment": "Notum activity assay with OPTS as substrate", "type": "biochemical", "design": "The human Notum enzyme core comprising amino acids S81–T451 with a C330S mutation; made in house; dialyzed conditioned medium used without purification", "settings": "result in words", "method": "OPTS is a common lipase substrate with an octanoyl lipid linked to a fluorescent moiety. It is not a natural Notum substrate; however, it can be used to quantify the enzymatic activity of purified Notum protein[23],[25],[28]. […] The fluorescent lipase substrate OPTS was dissolved in water at a concentration of 20 µM. […] The inhibition curves were fitted with a one-site model with GraphPad Prism 8 software."}, "[3]": {"molecular_target": "T1, Notum", "experiment": "Thermal shift assay (SYPRO Orange) of Notum", "settings": "compound 500 µM; for Thermoflour melting curve fluorescence of Notum: Fig 2c", "procedure": "Reference wells, i.e. solutions without compounds were used to compare the melting temperature (Tm). The experiments were performed in triplicate."}},
  "note": "Entries after “also recorded” stand apart in the source; their conditions may differ.",
  "data": [
    {"substance": "1,5-dimethylxanthine [theobromine]", "values": [
      {"measurement": "Binding to Notum (SPR response)", "setting": "[1]", "result": "did not observe significant responses; also recorded: do not bind Notum"},
      {"measurement": "Notum inhibitory effect in OPTS enzyme assay", "setting": "[2]", "result": "could not detect obvious Notum inhibitory effects"},
      {"measurement": "Thermoflour melting curve fluorescence of Notum", "setting": "[3]; Temperature 24.5", "result": 1404.51},
      {"measurement": "Thermoflour melting curve fluorescence of Notum", "setting": "[3]; Temperature 25.5", "result": 1219.92},
      {"measurement": "Thermoflour melting curve fluorescence of Notum", "setting": "[3]; Temperature 26.5", "result": 1040.89},
      {"measurement": "Thermoflour melting curve fluorescence of Notum", "setting": "[3]; Temperature 27.5", "result": 912.702},
      {"measurement": "Thermoflour melting curve fluorescence of Notum", "setting": "[3]; Temperature 28.5", "result": 812.506},
      {"measurement": "Thermoflour melting curve fluorescence of Notum", "setting": "[3]; Temperature 29.5", "result": 748.934},
      {"measurement": "Thermoflour melting curve fluorescence of Notum", "setting": "[3]; Temperature 30.5", "result": 702.942},
      {"measurement": "Thermoflour melting curve fluorescence of Notum", "setting": "[3]; Temperature 31.5", "result": 648.106},
      {"measurement": "Thermoflour melting curve fluorescence of Notum", "setting": "[3]; Temperature 32.5", "result": 580.173},
      {"measurement": "Thermoflour melting curve fluorescence of Notum", "setting": "[3]; Temperature 33.5", "result": 507.838},
      {"measurement": "Thermoflour melting curve fluorescence of Notum", "setting": "[3]; Temperature 34.5", "result": 418.887},
      {"measurement": "Thermoflour melting curve fluorescence of Notum", "setting": "[3]; Temperature 35.5", "result": 274.731},
      {"measurement": "Thermoflour melting curve fluorescence of Notum", "setting": "[3]; Temperature 36.5", "result": 90.4697},
      {"measurement": "Thermoflour melting curve fluorescence of Notum", "setting": "[3]; Temperature 37.5", "result": -139.16},
      {"measurement": "Thermoflour melting curve fluorescence of Notum", "setting": "[3]; Temperature 38.5", "result": -392.32},
      {"measurement": "Thermoflour melting curve fluorescence of Notum", "setting": "[3]; Temperature 39.5", "result": -608.25},
      {"measurement": "Thermoflour melting curve fluorescence of Notum", "setting": "[3]; Temperature 40.5", "result": -782.991},
      {"measurement": "Thermoflour melting curve fluorescence of Notum", "setting": "[3]; Temperature 41.5", "result": -908.263},
      {"measurement": "Thermoflour melting curve fluorescence of Notum", "setting": "[3]; Temperature 42.5", "result": -987.266},
      {"measurement": "Thermoflour melting curve fluorescence of Notum", "setting": "[3]; Temperature 43.5", "result": -1014},
      {"measurement": "Thermoflour melting curve fluorescence of Notum", "setting": "[3]; Temperature 44.5", "result": -973.707},
      {"measurement": "Thermoflour melting curve fluorescence of Notum", "setting": "[3]; Temperature 45.5", "result": -878.635},
      {"measurement": "Thermoflour melting curve fluorescence of Notum", "setting": "[3]; Temperature 46.5", "result": -736.376},
      {"measurement": "Thermoflour melting curve fluorescence of Notum", "setting": "[3]; Temperature 47.5", "result": -559.758},
      {"measurement": "Thermoflour melting curve fluorescence of Notum", "setting": "[3]; Temperature 48.5", "result": -346.91},
      {"measurement": "Thermoflour melting curve fluorescence of Notum", "setting": "[3]; Temperature 49.5", "result": -78.207},
      {"measurement": "Thermoflour melting curve fluorescence of Notum", "setting": "[3]; Temperature 50.5", "result": 248.299},
      {"measurement": "Thermoflour melting curve fluorescence of Notum", "setting": "[3]; Temperature 51.5", "result": 600.666},
      {"measurement": "Thermoflour melting curve fluorescence of Notum", "setting": "[3]; Temperature 52.5", "result": 986.098},
      {"measurement": "Thermoflour melting curve fluorescence of Notum", "setting": "[3]; Temperature 53.5", "result": 1440.99},
      {"measurement": "Thermoflour melting curve fluorescence of Notum", "setting": "[3]; Temperature 54.5", "result": 1961.08},
      {"measurement": "Thermoflour melting curve fluorescence of Notum", "setting": "[3]; Temperature 55.5", "result": 2560.53},
      {"measurement": "Thermoflour melting curve fluorescence of Notum", "setting": "[3]; Temperature 56.5", "result": 3253.14},
      {"measurement": "Thermoflour melting curve fluorescence of Notum", "setting": "[3]; Temperature 57.5", "result": 4045.69},
      {"measurement": "Thermoflour melting curve fluorescence of Notum", "setting": "[3]; Temperature 58.5", "result": 5053.15},
      {"measurement": "Thermoflour melting curve fluorescence of Notum", "setting": "[3]; Temperature 59.5", "result": 6367.38},
      {"measurement": "Thermoflour melting curve fluorescence of Notum", "setting": "[3]; Temperature 60.5", "result": 8116.48},
      {"measurement": "Thermoflour melting curve fluorescence of Notum", "setting": "[3]; Temperature 61.5", "result": 10309.5},
      {"measurement": "Thermoflour melting curve fluorescence of Notum", "setting": "[3]; Temperature 62.5", "result": 12803.5},
      {"measurement": "Thermoflour melting curve fluorescence of Notum", "setting": "[3]; Temperature 63.5", "result": 15345.7},
      {"measurement": "Thermoflour melting curve fluorescence of Notum", "setting": "[3]; Temperature 64.5", "result": 17689.5},
      {"measurement": "Thermoflour melting curve fluorescence of Notum", "setting": "[3]; Temperature 65.5", "result": 19737.1},
      {"measurement": "Thermoflour melting curve fluorescence of Notum", "setting": "[3]; Temperature 66.5", "result": 21432.6},
      {"measurement": "Thermoflour melting curve fluorescence of Notum", "setting": "[3]; Temperature 67.5", "result": 22887.7},
      {"measurement": "Thermoflour melting curve fluorescence of Notum", "setting": "[3]; Temperature 68.5", "result": 24216},
      {"measurement": "Thermoflour melting curve fluorescence of Notum", "setting": "[3]; Temperature 69.5", "result": 25446.3},
      {"measurement": "Thermoflour melting curve fluorescence of Notum", "setting": "[3]; Temperature 70.5", "result": 26564.8},
      {"measurement": "Thermoflour melting curve fluorescence of Notum", "setting": "[3]; Temperature 71.5", "result": 27592.2},
      {"measurement": "Thermoflour melting curve fluorescence of Notum", "setting": "[3]; Temperature 72.5", "result": 28538.2},
      {"measurement": "Thermoflour melting curve fluorescence of Notum", "setting": "[3]; Temperature 73.5", "result": 29406},
      {"measurement": "Thermoflour melting curve fluorescence of Notum", "setting": "[3]; Temperature 74.5", "result": 30226.8},
      {"measurement": "Thermoflour melting curve fluorescence of Notum", "setting": "[3]; Temperature 75.5", "result": 30994.2},
      {"measurement": "Thermoflour melting curve fluorescence of Notum", "setting": "[3]; Temperature 76.5", "result": 31712.3},
      {"measurement": "Thermoflour melting curve fluorescence of Notum", "setting": "[3]; Temperature 77.5", "result": 32380.8},
      {"measurement": "Thermoflour melting curve fluorescence of Notum", "setting": "[3]; Temperature 78.5", "result": 33030.5},
      {"measurement": "Thermoflour melting curve fluorescence of Notum", "setting": "[3]; Temperature 79.5", "result": 33697.5},
      {"measurement": "Thermoflour melting curve fluorescence of Notum", "setting": "[3]; Temperature 80.5", "result": 34352.1},
      {"measurement": "Thermoflour melting curve fluorescence of Notum", "setting": "[3]; Temperature 81.5", "result": 34969.9},
      {"measurement": "Thermoflour melting curve fluorescence of Notum", "setting": "[3]; Temperature 82.5", "result": 35562.2},
      {"measurement": "Thermoflour melting curve fluorescence of Notum", "setting": "[3]; Temperature 83.5", "result": 36162.5},
      {"measurement": "Thermoflour melting curve fluorescence of Notum", "setting": "[3]; Temperature 84.5", "result": 36803.8},
      {"measurement": "Thermoflour melting curve fluorescence of Notum", "setting": "[3]; Temperature 85.5", "result": 37475.6},
      {"measurement": "Thermoflour melting curve fluorescence of Notum", "setting": "[3]; Temperature 86.5", "result": 38149.2},
      {"measurement": "Thermoflour melting curve fluorescence of Notum", "setting": "[3]; Temperature 87.5", "result": 38788.7},
      {"measurement": "Thermoflour melting curve fluorescence of Notum", "setting": "[3]; Temperature 88.5", "result": 39302.1},
      {"measurement": "Thermoflour melting curve fluorescence of Notum", "setting": "[3]; Temperature 89.5", "result": 39800.1},
      {"measurement": "Thermoflour melting curve fluorescence of Notum", "setting": "[3]; Temperature 90.5", "result": 40397.5},
      {"measurement": "Thermoflour melting curve fluorescence of Notum", "setting": "[3]; Temperature 91.5", "result": 41008.7},
      {"measurement": "Thermoflour melting curve fluorescence of Notum", "setting": "[3]; Temperature 92.5", "result": 41535.5},
      {"measurement": "Thermoflour melting curve fluorescence of Notum", "setting": "[3]; Temperature 93.5", "result": 42071.6},
      {"measurement": "Thermoflour melting curve fluorescence of Notum", "setting": "[3]; Temperature 94.5", "result": 42644},
      {"measurement": "Thermoflour melting curve fluorescence of Notum", "setting": "[3]; Temperature 95.5", "result": 43225},
      {"measurement": "Thermoflour melting curve fluorescence of Notum", "setting": "[3]; Temperature 96.5", "result": 43850.3},
      {"measurement": "Thermoflour melting curve fluorescence of Notum", "setting": "[3]; Temperature 97.5", "result": 44460.4},
      {"measurement": "Effect on Tm of Notum", "setting": "[3]", "result": "little effect on the Tm"},
      {"measurement": "Melting temperature (Tm) of Notum", "setting": "[3]; Notum without compounds Tm 63.6 °C", "result": 63.4, "unit": "°C"}
    ]}
  ]
}
